Measured values as given in patent US9409952B2, “Peptide-compound cyclization method” (Chugai Seiyaku Kabushiki Kaisha, priority 2011, dated 2016).
Read-outs that look alike come from different tables or passages of the source. Starred links: 1 amine or outer side, 2 acyl side, 3 side chain; linkers in the order of their positions; H or OH if unused. Positions of bridges follow the written chain, without caps; N, C: chain ends. Non-standard residues stand in square brackets, D forms with d. Residues, ends and D or L forms follow the SMILES beside them. *: point of attachment. Phe(3-(CH2)4CO) = O=C([C@H](Cc1cccc(CCCCC(=O)[*:3])c1)N[*:1])[*:2]; NMePhe(3-Cl) = CN[C@@H](Cc1cccc(Cl)c1)C(=O)O; Met(O2) = CS(=O)(=O)CC[C@H](N)C(=O)O; hhPhe = N[C@@H](CCCc1ccccc1)C(=O)O; NMeF = CN[C@@H](Cc1ccccc1)C(=O)O; NMeI = CC[C@H](C)[C@H](NC)C(=O)O; NMeβAla = CN(CCC(=O)[*:2])[*:1]; NMeL = CN[C@@H](CC(C)C)C(=O)O; NMeV = CN[C@H](C(=O)O)C(C)C; NMeA = CN[C@@H](C)C(=O)O; Piperidide = C1CCN(*)CC1; dNMeA = CN[C@H](C)C(=O)O; β3hA = C[C@H](N)CC(=O)O; Sar = CNCC(=O)O; tBu = CC(C)(C)*

Tests used:
[1] = PAMPA (parallel artificial membrane permeability assay); type: in vitro ADME; conditions: for Papp at 18 hours, 50 µM: PAMPA
Outline: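 Artificial membrane was 10% (w/v) egg lecithin plus 0.5% (w/v) cholesterol in dodecane on a PVDF filter. A 10 mM DMSO stock was added at 0.5% (v/v) to donor buffer (50 mM MOPSO, pH 6.5, 5.0% glycocholic acid). After 18 h at 37 °C, LC/MS or LC/UV gave donor and acceptor levels for Pe.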

[2] = Metabolic stability in human hepatic microsome; type: in vitro ADME; conditions: microsomes
[3] = membrane permeation rate (Pe), 50 mM MOPSO buffer pH 6.5 with 5.0% glycocholic acid, 37° C., 18 hours, read-out: iPAMPA Pe
[4] = pH 7.4, human hepatic microsome, NADPH(+), read-out: CL NADPH(+)

Row | Compound | Papp at 18 hours, 50 µM [1, 3] | microsomal CLint at 1 uM [2, 4] | Papp at 18 hours, 50 µM ([1]; pH 6.5) | microsomal CLint at 1 uM ([2]; human, pH 7.4, CL NADPH(+)) | iPAMPA Pe ([1]; membrane permeation rate (Pe), 50 mM MOPSO buffer pH 6.5 with 5.0% glycocholic acid, 37° C., 18 hours)
1 | CC[C@H](C)[C@@H]1NC(=O)[C@H](CC(C)C)N(C)C(=O)[C@H]([C@@H](C)O)NC(=O)[C@H](CC(C)C)N(C)C(=O)[C@H](C(C)C)NC(=O)[C@H](Cc2ccccc2)N(C)C(=O)CCN(C)C(=O)C[C@@H](C(=O)N2CCC[C@H]2C(=O)N[C@H](C(=O)N(C)[C@@H](Cc2cccc(Cl)c2)C(=O)N(C)[C@@H](Cc2ccccc2)C(=O)N[C@H](C(=O)N2CCCCC2)[C@@H](C)CC)C(C)C)NC1=O [DP-926] ([NMeβAla][NMeF]V[NMeL]T[NMeL]IDPV[NMePhe(3-Cl)][NMeF]I-Piperidide; lactam N-8) | 0.1 ×10⁻⁶ cm/s | 53 µL/min/mg | – | – | –
2 | CC(C)C[C@H]1C(=O)N(C)[C@@H](C)C(=O)N(C)[C@@H](CC(C)C)C(=O)N[C@H](C(=O)N2CCCCC2)CC(=O)N(C)[C@H](C)C(=O)N(C)[C@@H](Cc2ccccc2)C(=O)N[C@@H]([C@@H](C)O)C(=O)N(C)[C@@H](C)C(=O)N(C)[C@@H](CC(C)C)C(=O)NCC(=O)N1C [DP-435] ([dNMeA][NMeF]T[NMeA][NMeL]G[NMeL][NMeA][NMeL]D-Piperidide; lactam N-10) | 16 ×10⁻⁶ cm/s | 41 µL/min/mg | – | – | –
3 | CC(C)C[C@H]1C(=O)N2CCC[C@H]2C(=O)N(C)[C@@H](CC(C)C)C(=O)N[C@@H](C)C(=O)N(C)[C@@H](C(C)C)C(=O)N[C@@H](C)CC(=O)N(C)[C@@H](C)C(=O)N[C@@H]([C@@H](C)O)C(=O)N(C)CC(=O)N(C)[C@@H](Cc2ccccc2)C(=O)N(C)[C@@H](Cc2ccccc2)C(=O)N1C [DP-768] (cyclo(A[NMeV][β3hA][NMeA]T[Sar][NMeF][NMeF][NMeL]P[NMeL])) | – | – | 25 ×10⁻⁶ cm/s | 34 µL/min/mg | –
4 | CC(C)C[C@@H]1NC(=O)[C@H](CC(C)C)N(C)C(=O)[C@H](CC(C)C)N(C)C(=O)[C@H](CC(C)C)NC(=O)[C@H](Cc2ccccc2)N(C)C(=O)[C@H](CCS(C)(=O)=O)NC(=O)[C@H](CC(C)C)N(C)C(=O)[C@H](Cc2ccccc2)NC(=O)[C@H](C)NC(=O)C[C@@H](C(=O)N(C)[C@@H](Cc2ccccc2)C(=O)N[C@@H](C)C(=O)N2CCCCC2)NC1=O [DP-607] (AF[NMeL][Met(O2)][NMeF]L[NMeL][NMeL]LD[NMeF]A-Piperidide; lactam N-10) | 1.2 ×10⁻⁶ cm/s | 2 µL/min/mg | – | – | –
5 | CC[C@H](C)[C@H]1C(=O)N[C@@H](COC(C)(C)C)C(=O)N(C)[C@@H](C(C)C)C(=O)N[C@@H](C)CC(=O)N(C)[C@@H](CC(C)C)C(=O)N(C)[C@@H](Cc2ccccc2)C(=O)N[C@@H](CC(C)C)C(=O)N(C)[C@@H](CC(C)C)C(=O)N[C@@H]([C@@H](C)O)C(=O)N(C)CC(=O)N1C [DP-821] (cyclo(L[NMeL]T[Sar][NMeI]S(tBu)[NMeV][β3hA][NMeL][NMeF])) | 62 ×10⁻⁶ cm/s | 547 µL/min/mg | – | – | –
6 | CC[C@H](C)[C@@H]1NC(=O)[C@H](CC(C)C)N(C)C(=O)CCCCc2cccc(c2)C[C@@H](C(=O)N2CCCCC2)NC(=O)[C@H](CC(C)C)N(C)C(=O)[C@H](C)N(C)C(=O)[C@H]([C@@H](C)O)NC(=O)[C@H](CC(C)C)N(C)C(=O)[C@H](COC(C)(C)C)NC(=O)[C@H](Cc2ccccc2)N(C)C(=O)[C@H](Cc2ccccc2)N(C)C1=O [DP-862] ([NMeL]I[NMeF][NMeF]S(tBu)[NMeL]T[NMeA][NMeL][Phe(3-(CH2)4CO)]-Piperidide; lactam N-10) | – | 118 µL/min/mg | – | – | 1.0E−07
7 | CC[C@H](C)[C@@H]1NC(=O)[C@H](CC(C)C)NC(=O)[C@H](C(C)C)NC(=O)[C@H](CC(C)C)N(C)C(=O)[C@H](CC(C)C)NC(=O)[C@H](CCCc2ccccc2)NC(=O)[C@H]([C@@H](C)O)NC(=O)[C@H](C)N(C)C(=O)[C@H](CC(C)C)NC(=O)[C@H](C)N(C)C(=O)C[C@@H](C(=O)N2CCCCC2)NC1=O [DP-729] ([NMeA]L[NMeA]T[hhPhe]L[NMeL]VLID-Piperidide; lactam N-11) | 4.7 ×10⁻⁶ cm/s | 54 µL/min/mg | – | – | –
8 | CC(C)C[C@H]1C(=O)N[C@H](C(=O)N2CCCCC2)CC(=O)N(C)CCC(=O)N[C@@H]([C@@H](C)O)C(=O)N(C)[C@@H](C)C(=O)N[C@@H](COC(C)(C)C)C(=O)N(C)[C@@H](Cc2ccccc2)C(=O)N(C)[C@@H](CC(C)C)C(=O)N1C [DP-704] ([NMeβAla]T[NMeA]S(tBu)[NMeF][NMeL][NMeL]D-Piperidide; lactam N-8) | 29 ×10⁻⁶ cm/s | 83 µL/min/mg | – | – | –
9 | CC(C)C[C@@H]1NC(=O)[C@H](CC(C)C)N(C)C(=O)[C@@H]2CCCN2C(=O)[C@H](CC(C)C)N(C)C(=O)[C@H](Cc2ccccc2)NC(=O)CNC(=O)[C@H](CC(C)C)N(C)C(=O)[C@H](Cc2ccccc2)NC(=O)CCN(C)C(=O)C[C@@H](C(=O)N(C)[C@@H](Cc2ccccc2)C(=O)N[C@@H](C)C(=O)N2CCCCC2)NC(=O)[C@H]([C@@H](C)O)NC1=O [DP-182] ([NMeβAla]F[NMeL]GF[NMeL]P[NMeL]LTD[NMeF]A-Piperidide; lactam N-11) | 26 ×10⁻⁶ cm/s | 9 µL/min/mg | – | – | –
10 | CC[C@H](C)[C@H]1C(=O)N[C@@H](COC(C)(C)C)C(=O)N[C@@H](C)CC(=O)N(C)[C@@H](C)C(=O)N(C)[C@@H](CC(C)C)C(=O)N(C)CC(=O)N(C)[C@@H](CC(C)C)C(=O)N[C@@H]([C@@H](C)O)C(=O)N(C)[C@@H](C)C(=O)N(C)[C@@H](CC(C)C)C(=O)N1C [DP-804] (cyclo([NMeA][NMeL][NMeI]S(tBu)[β3hA][NMeA][NMeL][Sar][NMeL]T)) | 29 ×10⁻⁶ cm/s | 40 µL/min/mg | – | – | –
11 | C=C1CCC(=O)N(C)[C@@H](Cc2ccccc2)C(=O)N(C)CC(=O)N(C)[C@@H](CC(C)C)C(=O)N[C@@H]([C@@H](C)O)C(=O)N(C)[C@@H](C)C(=O)N(C)[C@@H](CC(C)C)C(=O)N(C)[C@@H]([C@@H](C)CC)C(=O)N[C@@H](COC(C)(C)C)C(=O)N[C@H](C(=O)N2CCCCC2)Cc2cccc1c2 [DP-831] | – | – | 55 ×10⁻⁶ cm/s | 683 µL/min/mg | –
12 | CC(C)C[C@H]1C(=O)N[C@@H](COC(C)(C)C)C(=O)N(C)[C@@H](Cc2ccccc2)C(=O)N(C)[C@@H](C)C(=O)N[C@@H](Cc2ccccc2)C(=O)N(C)[C@@H](C(C)C)C(=O)N[C@H](C(=O)N2CCCCC2)CC(=O)N(C)[C@H](C)C(=O)N[C@@H]([C@@H](C)O)C(=O)NCC(=O)N1C [DP-340] ([dNMeA]TG[NMeL]S(tBu)[NMeF][NMeA]F[NMeV]D-Piperidide; lactam N-10) | 31 ×10⁻⁶ cm/s | 86 µL/min/mg | – | – | –
13 | CC(C)C[C@H]1C(=O)N(C)[C@@H](CC(C)C)C(=O)N[C@H](C(=O)N2CCCCC2)CC(=O)N[C@H](C)C(=O)N(C)[C@@H](Cc2ccccc2)C(=O)N(C)[C@@H](CC(C)C)C(=O)N[C@@H]([C@@H](C)O)C(=O)N1C [DP-721] ([dA][NMeF][NMeL]T[NMeL][NMeL]D-Piperidide; lactam N-7) | 49 ×10⁻⁶ cm/s | 915 µL/min/mg | – | – | –
14 | CC[C@H](C)[C@H]1C(=O)N[C@@H](Cc2ccccc2)C(=O)N(C)[C@@H](Cc2ccccc2)C(=O)N[C@@H]([C@@H](C)O)C(=O)N2CCC[C@H]2C(=O)N[C@@H](CC(C)C)C(=O)N[C@H](C(=O)N2CCCCC2)Cc2cccc(c2)CCCCC(=O)NCC(=O)N(C)[C@@H](C(C)C)C(=O)N(C)[C@@H](CC(C)C)C(=O)N[C@@H](C)C(=O)N1C [DP-885] (G[NMeV][NMeL]A[NMeI]F[NMeF]TPL[Phe(3-(CH2)4CO)]-Piperidide; lactam N-11) | 30 ×10⁻⁶ cm/s | 75 µL/min/mg | – | – | –
